Some results are limits rather than exact numbers.

Our source for the LD50 values is ChEMBL document CHEMBL1121864, “Diterpenoid sweeteners. Synthesis and sensory evaluation of stevioside analogues nondegradable to steviol” (J Med Chem, 1981).

This data set can be described thus: Acute toxicity in mice after oral administration. As to conditions: mouse, in vivo.

By LD50 is commonly meant the dose expected to kill half of the subjects tested. Consider `C=C1C[C@@]23CC[C@H]4[C@@](C)(CCC[C@@]4(C)C(=O)O[C@@H]4O[C@H](CO)[C@@H](O)[C@H](O)[C@H]4O)[C@@H]2CC[C@]1(O[C@@H]1O[C@H](CO)[C@@H](O)[C@H](O)[C@H]1O[C@@H]1O[C@H](CO)[C@@H](O)[C@H](O)[C@H]1O)C3` [STEVIOSIDE], for which the LD50 was more than 8200 mg/kg. Moreover, the 50% lethal dose (LD50) (read-out: LD50) is more than 15000 mg/kg.
